# Reference: patent US12319655B2, “RAF kinase inhibitors and methods of use thereof” (Deciphera Pharmaceuticals, LLC, priority 2021, dated 2025)
# Assays:
# [1] = target: C-Raf kinase (SEQ. ID NO: 3) (Homo sapiens (Human), UniProt P04049, Y340D/Y341D); experiment: Biochemical Assay for C-Raf (1); conditions: Table J, assay version (1); read-out: CRAF (1) IC50
# In short: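 Coupled pyruvate kinase/LDH assay tracking NADH oxidation at 340 nm, with 0.43 nM C-Raf, 30.1 nM MEK and 1 mM ATP in pH 7.5 Tris buffer (15 mM MgCl2, 1% DMSO final). Read continuously for 6 h at 30 °C, rate taken from the 4–5 h window. IC50 from four-parameter fit of percent inhibition.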
# Miapaca-2 cells = experiment: MiaPaca-2 Cell Proliferation Assay (1); assay type: cell-based; conditions: Homo sapiens, MIA PaCa-2, single agent, read-out: MiaPaca2 (1) IC50
# In short: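 Resazurin was added after compound exposure and incubated 5-6 h, then fluorescence read at 540 nm excitation and 600 nm emission to give IC50.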
# H2405 cells = experiment: H2405 Cell Proliferation Assay (1); assay type: cell-based; conditions: Homo sapiens, NCI-H2405
# In short: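 Viability was read by resazurin reduction (ex 540 nm, em 600 nm; 5-6 h with 40 μL of 440 μM stock) after 67-72 h compound exposure at 37 °C.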
# [2] = target: B-Raf (V600E) (SEQ. ID NO: 4) kinase (Homo sapiens (Human), UniProt P15056, V600E); experiment: Biochemical Assay for B-Raf (V600E) (1); conditions: Table J, BRAF V600E, assay version (1); read-out: BRAF VE (1) IC50
# Sequence of B-Raf (V600E) (SEQ. ID NO: 4) kinase (P15056 416-766 V600E): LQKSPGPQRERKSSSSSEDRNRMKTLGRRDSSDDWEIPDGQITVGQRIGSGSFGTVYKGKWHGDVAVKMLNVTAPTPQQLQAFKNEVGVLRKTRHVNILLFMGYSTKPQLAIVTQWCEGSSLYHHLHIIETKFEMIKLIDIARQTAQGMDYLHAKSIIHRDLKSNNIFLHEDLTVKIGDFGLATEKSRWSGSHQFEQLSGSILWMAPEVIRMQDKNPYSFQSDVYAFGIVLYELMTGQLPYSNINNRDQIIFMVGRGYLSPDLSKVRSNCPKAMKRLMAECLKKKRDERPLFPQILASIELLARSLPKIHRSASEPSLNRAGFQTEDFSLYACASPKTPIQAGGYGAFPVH
# In short: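 Coupled pyruvate kinase/lactate dehydrogenase assay: 0.03 nM B-Raf V600E, 30.1 nM MEK, 1 mM ATP, pH 7.5 Tris/MgCl2 buffer, 1% DMSO. NADH oxidation followed at 340 nm for 6 h at 30 °C; rate from 3–4 h converted to percent inhibition, IC50 by four-parameter fit.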
# Sequence of C-Raf kinase (SEQ. ID NO: 3) (P04049 307-648 Y340D/Y341D): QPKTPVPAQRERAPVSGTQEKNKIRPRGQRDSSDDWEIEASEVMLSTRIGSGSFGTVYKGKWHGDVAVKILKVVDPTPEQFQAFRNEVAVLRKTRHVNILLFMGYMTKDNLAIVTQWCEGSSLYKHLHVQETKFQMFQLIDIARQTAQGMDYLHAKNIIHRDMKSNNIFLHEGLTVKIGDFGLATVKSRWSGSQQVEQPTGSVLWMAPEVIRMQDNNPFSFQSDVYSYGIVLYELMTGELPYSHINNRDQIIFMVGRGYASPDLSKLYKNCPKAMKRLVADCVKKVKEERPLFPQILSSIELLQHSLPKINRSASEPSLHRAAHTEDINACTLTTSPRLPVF
IC50 [1] [nM],IC50 (Miapaca-2 cells) [nM],IC50 (H2405 cells) [nM],IC50 [2] [nM],SMILES
≤ 100,1000 to 10000,100 to 500,≤ 100,Cc1ccc(NC(=O)c2ccnc(C(C)(C)C#N)c2)cc1-c1ccnc(-c2ccnc3c2CC(=O)N3)c1 [Example 23]
100 to 500,1000 to 10000,≤ 100,≤ 100,CNC(=O)c1cc(-c2cc(-c3cc(NC(=O)c4ccnc(C(F)(F)F)c4)ccc3C)cc(C3CC3)n2)ccn1 [Example 27]
≤ 100,1000 to 10000,≤ 100,≤ 100,CC(=O)Nc1cc(-c2cncc(-c3cc(NC(=O)c4ccnc(C(F)(F)F)c4)ccc3C)n2)ccn1 [Example 29]
≤ 100,1000 to 10000,≤ 100,≤ 100,CC(=O)Nc1cc(-c2cccc(-c3cc(NC(=O)c4ccnc(C(F)(F)F)c4)ccc3C)c2)ncn1 [Example 30]
≤ 100,1000 to 10000,100 to 500,≤ 100,Cc1ncc(NC(=O)c2cncc(C(F)F)c2)cc1-c1cccc(-c2cc(NC(=O)C3CC3)ncn2)c1 [Example 280]
≤ 100,1000 to 10000,100 to 500,≤ 100,Cc1ncc(NC(=O)c2cn(C(C)C)nn2)cc1-c1ccnc(-c2ccnc(NC(=O)C3CC3)c2)n1 [Example 281]
≤ 100,1000 to 10000,500 to 1000,≤ 100,COC(=O)Nc1cc(-c2cccc(-c3cc(NC(=O)c4ccnc(C(C)(C)C#N)c4)cnc3C)c2)ccn1 [Example 282]
≤ 100,1000 to 10000,100 to 500,≤ 100,Cc1ncc(NC(=O)c2cnn(C(C)(C)C)c2)cc1-c1ccnc(-c2ccnc(NC(=O)C3CC3)c2)n1 [Example 283]
≤ 100,1000 to 10000,500 to 1000,≤ 100,Cc1ccc(NC(=O)c2cnnc(C3CC3)c2)cc1-c1cccc(-c2cc(NC(=O)C3CC3)ncn2)c1 [Example 284]
≤ 100,1000 to 10000,100 to 500,≤ 100,Cc1nc(-c2ccnc(NC(=O)C3CC3)c2)cc(-c2cc(NC(=O)c3ccnc(C4(C#N)CC4)c3)cnc2C)n1 [Example 286]
≤ 100,1000 to 10000,500 to 1000,≤ 100,Cc1nc(-c2ccnc(NC(=O)C3CC3)c2)cc(-c2cc(NC(=O)c3ccnc(C4CC4)c3)cnc2C)n1 [Example 287]
≤ 100,1000 to 10000,1000 to 10000,≤ 100,COC(=O)Nc1cc(-c2cccc(-c3cc(NC(=O)c4ccnc(C5CC5)c4)cnc3C)c2)ccn1 [Example 288]
100 to 500,1000 to 10000,1000 to 10000,≤ 100,COC(=O)Nc1nccc(-c2cccc(-c3cc(NC(=O)c4ccnc(C(C)(C)C#N)c4)cnc3C)c2)n1 [Example 290]
≤ 100,1000 to 10000,100 to 500,≤ 100,Cc1ncc(NC(=O)c2ccnc(C3CC3)c2)cc1-c1cccc(-c2cc(NC(=O)C3CC3)ncn2)c1 [Example 291]
≤ 100,1000 to 10000,100 to 500,≤ 100,Cc1ncc(NC(=O)c2ccnc(C3CC3)c2)cc1-c1nccc(-c2ccnc(NC(=O)C3CC3)c2)n1 [Example 295]
≤ 100,1000 to 10000,≤ 100,≤ 100,COC(=O)Nc1cc(-c2cc(-c3cc(NC(=O)c4ccnc(C(C)(C)C#N)c4)cnc3C)ccn2)ccn1 [Example 297]
≤ 100,1000 to 10000,100 to 500,≤ 100,Cc1cc(F)c(NC(=O)c2ccnc(C(C)(C)C#N)c2)cc1-c1cc(-c2ccnc(NC(=O)C3CC3)c2)cnn1 [Example 298]
≤ 100,1000 to 10000,100 to 500,≤ 100,COC(=O)Nc1cc(-c2cnnc(-c3cc(NC(=O)c4ccnc(C(C)(C)C#N)c4)c(F)cc3C)c2)ccn1 [Example 299]
≤ 100,1000 to 10000,≤ 100,≤ 100,Cc1cc(F)c(NC(=O)c2ccnc(C(C)(C)F)c2)cc1-c1ccnc(-c2ccnc(NC(=O)C3CC3)c2)c1 [Example 300]
≤ 100,1000 to 10000,100 to 500,≤ 100,Cc1ncc(NC(=O)c2ccnc(C(C)(C)C#N)c2)cc1-c1cccc(-c2ccnc(C(N)=O)c2)c1 [Example 301]
≤ 100,1000 to 10000,100 to 500,≤ 100,COC(=O)Nc1cc(-c2nccc(-c3cc(NC(=O)c4ccnc(C(C)(C)F)c4)c(F)cc3C)n2)ccn1 [Example 304]
≤ 100,1000 to 10000,100 to 500,≤ 100,COC(=O)Nc1cc(-c2cnnc(-c3cc(NC(=O)c4ccnc(C(C)(C)C#N)c4)ccc3C)c2)ccn1 [Example 305]

IC50 [1] [nM],IC50 (Miapaca-2 cells) [nM],IC50 (H2405 cells) [nM],IC50 [2] [nM],SMILES
100 to 500,1000 to 10000,1000 to 10000,100 to 500,COC(=O)Nc1cc(-c2cnnc(-c3cc(NC(=O)c4ccnc(C(C)(C)C#N)c4)cnc3C)c2)ccn1 [Example 306]
≤ 100,1000 to 10000,≤ 100,≤ 100,Cc1cc(F)c(NC(=O)c2ccnc(C(F)F)c2)cc1-c1ccnc(-c2ccnc(NC(=O)C3CC3)c2)c1 [Example 307]
≤ 100,1000 to 10000,≤ 100,≤ 100,COC(=O)Nc1cc(-c2cc(-c3cc(NC(=O)c4ccnc(C(C)(C)C#N)c4)c(F)cc3C)ccn2)ccn1 [Example 308]
100 to 500,1000 to 10000,1000 to 10000,100 to 500,CNC(=O)c1cc(-c2cnnc(-c3cc(NC(=O)c4ccnc(C(C)(C)F)c4)cnc3C)c2)ccn1 [Example 309]
≤ 100,1000 to 10000,100 to 500,≤ 100,Cc1ncc(NC(=O)c2ccnc(C(C)(C)F)c2)cc1-c1cc(-c2ccnc(NC(=O)C3CC3)c2)cnn1 [Example 310]
≤ 100,1000 to 10000,100 to 500,500 to 1000,COC(=O)Nc1cc(-c2cc(-c3cc(NC(=O)c4ccnc(C(F)(F)F)c4)cnc3C)ccn2)ccn1 [Example 312]
≤ 100,1000 to 10000,1000 to 10000,≤ 100,Cc1ncc(NC(=O)C2CCOC(C)(C)C2)cc1-c1cccc(-c2cc(NC(=O)C3CC3)ncn2)c1 (centres unmarked) [Example 348]
1000 to 10000,–,1000 to 10000,1000 to 10000,COC(=O)Nc1cc(-c2cnnc(-c3cc(NC(=O)CN4CCCC4)cnc3C)c2)ccn1 [Example 359]
100 to 500,–,1000 to 10000,1000 to 10000,COC(=O)Nc1cc(-c2cnnc(-c3cc(NC(=O)COCC4CC4)ccc3C)c2)ccn1 [Example 360]
≤ 100,–,500 to 1000,100 to 500,COC(=O)Nc1cc(-c2cnnc(-c3cc(NC(=O)c4ccnc(C(C)(C)F)c4)cnc3C)c2)ccn1 [Example 361]
≤ 100,–,1000 to 10000,1000 to 10000,COC(=O)Nc1cc(-c2cnnc(-c3cc(NC(=O)c4ccnc(C5CC5)c4)cnc3C)c2)ccn1 [Example 362]
100 to 500,–,1000 to 10000,1000 to 10000,COC(=O)Nc1cc(-c2cnnc(-c3cc(NC(=O)c4ccnc(C(F)F)c4)cnc3C)c2)ccn1 [Example 363]
100 to 500,–,500 to 1000,100 to 500,CNC(=O)c1cc(-c2cnnc(-c3cc(NC(=O)c4ccnc(C(F)(F)F)c4)ccc3C)c2)ccn1 [Example 364]
100 to 500,–,1000 to 10000,500 to 1000,COCCNC(=O)c1cc(-c2cnnc(-c3cc(NC(=O)c4cccc(C5CC5)c4)ccc3C)c2)ccn1 [Example 365]
100 to 500,–,1000 to 10000,100 to 500,CNC(=O)c1cc(-c2cnnc(-c3cc(NC(=O)c4cn(C(C)(C)C)nn4)ccc3C)c2)ccn1 [Example 366]
≤ 100,–,100 to 500,≤ 100,Cc1ccc(NC(=O)c2cc(C(C)(C)C)no2)cc1-c1cc(-c2ccnc(NC(=O)C3CC3)c2)cnn1 [Example 367]
1000 to 10000,–,1000 to 10000,1000 to 10000,COC(=O)Nc1cc(-c2cnnc(-c3cc(NC(=O)CC4CCCC4)cnc3C)c2)ccn1 [Example 368]
≤ 100,–,500 to 1000,≤ 100,Cc1ccc(NC(=O)c2ccnc(C(C)(C)C#N)c2)cc1-c1cc(-c2ccnc3[nH]ccc23)cnn1 [Example 369]
≤ 100,–,500 to 1000,≤ 100,Cc1ccc(NC(=O)C2CCOC(C(C)C)C2)cc1-c1cc(-c2ccnc(NC(=O)C3CC3)c2)cnn1 (centres unmarked) [Example 370]
100 to 500,–,100 to 500,≤ 100,CNC(=O)c1cc(-c2cc(-c3cc(NC(=O)c4ccnc(C(C)(C)F)c4)ccc3C)cnc2C)ccn1 [Example 371]
500 to 1000,–,1000 to 10000,100 to 500,Cc1ccc(NC(=O)c2ccnc(C(C)(C)C#N)c2)cc1-c1cc(-c2ccnc(C(=O)NC3CC3)c2)cnn1 [Example 372]
